In PubChem BioAssay (NCI):
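Dose response: 5 concentrations. Exposure: 48 h. Format: 96-well plates. Endpoint: linear interpolation; highest concentration if not reached. TGI: concentration producing complete growth inhibition.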

Assays:
Assay in all cases: inhibition of tumour cell growth, NCI panel, 48 h
[1] = test system: OVCAR-8 ovarian
[2] = test system: SR leukemia
[3] = test system: SN12C renal
[4] = test system: LOX IMVI melanoma
[5] = test system: M14 melanoma
[6] = test system: MOLT-4 leukemia
[7] = test system: OVCAR-3 ovarian
[8] = test system: OVCAR-5 ovarian
[9] = test system: UO-31 renal
[10] = test system: 786-0 renal
[11] = test system: RXF 393 renal
[12] = test system: IGROV1 ovarian
[13] = test system: HCT-116 colon
[14] = test system: ACHN renal
[15] = test system: OVCAR-4 ovarian
[16] = test system: A549 NSCLC
[17] = test system: KM12 colon
[18] = test system: HOP-18 NSCLC
[19] = test system: NCI-H460 lung
[20] = test system: SK-MEL-28 melanoma
[21] = test system: DLD-1 colon
[22] = test system: K-562 leukemia
[23] = test system: COLO 205 colon
[24] = test system: XF 498 CNS
[25] = test system: LXFL 529 NSCLC
[26] = test system: CCRF-CEM leukemia
[27] = test system: SF-539 CNS
[28] = test system: MALME-3M melanoma
[29] = test system: SF-268 CNS
[30] = test system: NCI-H522 lung
[31] = test system: RXF-631 renal
[32] = test system: HOP-62 NSCLC
[33] = test system: HOP-92 NSCLC
[34] = test system: UACC-257 melanoma
[35] = test system: DMS 114 small cell lung
[36] = test system: SF-295 CNS
[37] = test system: SNB-75 CNS
[38] = test system: SK-MEL-5 melanoma
[39] = test system: SW-620 colon
[40] = test system: HT29 colon
[41] = test system: HCC-2998 colon
[42] = test system: TK-10 renal
[43] = test system: DMS 273 small cell lung
[44] = test system: SNB-78 CNS
[45] = test system: HL-60(TB) leukemia
[46] = test system: CAKI-1 renal
[47] = test system: U251 CNS
[48] = test system: SNB-19 CNS
[49] = test system: UACC-62 melanoma
[50] = test system: M19-MEL melanoma
[51] = test system: NCI-H23 lung
[52] = test system: HCT-15 colon
[53] = test system: RPMI-8226 leukemia
[54] = test system: SK-MEL-2 melanoma
[55] = test system: NCI-H226 lung
[56] = test system: A498 renal
[57] = test system: EKVX NSCLC

Q: `COc1ccc2c(c1)CCc1c(C(C)=O)c3ccccc3n1C2` was tested. Which TGI [1] did it give?
A: > 100 µM

Q: And the TGI [2]?
A: > 100 µM

Q: What about the TGI [3] of the same compound?
A: > 100 µM

Q: What about the TGI [4] of the same compound?
A: > 100 µM

Q: What about the TGI [5] of the same compound?
A: > 100 µM

Q: And the TGI [6]?
A: > 100 µM

Q: And the TGI [7]?
A: > 100 µM

Q: And the TGI [8]?
A: > 100 µM

Q: What about the TGI [9] of the same compound?
A: > 100 µM

Q: And the TGI [10]?
A: > 100 µM

Q: And the TGI [11]?
A: 75.4 µM

Q: What about the TGI [12] of the same compound?
A: > 100 µM

Q: And the TGI [13]?
A: > 100 µM

Q: What about the TGI [14] of the same compound?
A: > 100 µM

Q: What about the TGI [15] of the same compound?
A: > 100 µM

Q: What about the TGI [16] of the same compound?
A: > 100 µM

Q: What about the TGI [17] of the same compound?
A: > 100 µM

Q: What about the TGI [18] of the same compound?
A: > 100 µM

Q: What about the TGI [19] of the same compound?
A: > 100 µM

Q: What about the TGI [20] of the same compound?
A: > 100 µM

Q: And the TGI [21]?
A: > 100 µM

Q: And the TGI [22]?
A: > 100 µM

Q: What about the TGI [23] of the same compound?
A: > 100 µM

Q: And the TGI [24]?
A: 51.2 µM

Q: What about the TGI [25] of the same compound?
A: > 100 µM

Q: What about the TGI [26] of the same compound?
A: > 100 µM

Q: What about the TGI [27] of the same compound?
A: 62.6 µM

Q: And the TGI [28]?
A: 74.4 µM

Q: What about the TGI [29] of the same compound?
A: > 100 µM

Q: What about the TGI [30] of the same compound?
A: > 100 µM

Q: What about the TGI [31] of the same compound?
A: > 100 µM

Q: What about the TGI [32] of the same compound?
A: 91.3 µM

Q: And the TGI [33]?
A: > 100 µM

Q: What about the TGI [34] of the same compound?
A: > 100 µM

Q: What about the TGI [35] of the same compound?
A: > 100 µM

Q: And the TGI [36]?
A: > 100 µM

Q: And the TGI [37]?
A: 85.1 µM

Q: What about the TGI [38] of the same compound?
A: > 100 µM

Q: And the TGI [39]?
A: > 100 µM

Q: What about the TGI [40] of the same compound?
A: > 100 µM

Q: And the TGI [41]?
A: > 100 µM

Q: What about the TGI [42] of the same compound?
A: > 100 µM

Q: And the TGI [43]?
A: > 100 µM

Q: And the TGI [44]?
A: > 100 µM

Q: What about the TGI [45] of the same compound?
A: > 100 µM

Q: What about the TGI [46] of the same compound?
A: > 100 µM

Q: What about the TGI [47] of the same compound?
A: > 100 µM

Q: What about the TGI [48] of the same compound?
A: > 100 µM

Q: What about the TGI [49] of the same compound?
A: > 100 µM

Q: What about the TGI [50] of the same compound?
A: > 100 µM

Q: What about the TGI [51] of the same compound?
A: > 100 µM

Q: For `O=C(Nc1ccc2[nH]c3c(-c4ccccc4)nccc3c2c1)c1ccccc1[N+](=O)[O-]`, which TGI [1] is on record?
A: > 100 µM

Q: And the TGI [2]?
A: 6.97 µM

Q: What about the TGI [3] of the same compound?
A: > 100 µM

Q: What about the TGI [5] of the same compound?
A: 5.88 µM

Q: What about the TGI [6] of the same compound?
A: 15.3 µM

Q: What about the TGI [8] of the same compound?
A: 4.63 µM

Q: And the TGI [52]?
A: 5.32 µM

Q: And the TGI [53]?
A: > 100 µM

Q: What about the TGI [11] of the same compound?
A: 3.69 µM

Q: And the TGI [12]?
A: > 100 µM

Q: And the TGI [13]?
A: > 100 µM

Q: And the TGI [14]?
A: > 100 µM

Q: What about the TGI [15] of the same compound?
A: > 100 µM

Q: And the TGI [16]?
A: > 100 µM

Q: And the TGI [17]?
A: > 100 µM

Q: What about the TGI [18] of the same compound?
A: > 100 µM

Q: And the TGI [19]?
A: > 100 µM

Q: And the TGI [20]?
A: > 100 µM

Q: What about the TGI [22] of the same compound?
A: > 100 µM

Q: What about the TGI [23] of the same compound?
A: 23.5 µM

Q: What about the TGI [24] of the same compound?
A: 18.9 µM

Q: What about the TGI [25] of the same compound?
A: 47.2 µM

Q: What about the TGI [26] of the same compound?
A: > 100 µM

Q: What about the TGI [27] of the same compound?
A: 3.46 µM

Q: What about the TGI [28] of the same compound?
A: 3.64 µM

Q: And the TGI [29]?
A: > 100 µM

Q: What about the TGI [31] of the same compound?
A: > 100 µM

Q: What about the TGI [33] of the same compound?
A: 8.97 µM

Q: And the TGI [54]?
A: 21.4 µM

Q: And the TGI [34]?
A: 30.7 µM

Q: And the TGI [55]?
A: 6.2 µM

Q: And the TGI [35]?
A: > 100 µM

Q: What about the TGI [56] of the same compound?
A: 9.47 µM

Q: And the TGI [36]?
A: 3.7 µM

Q: And the TGI [37]?
A: 9.14 µM

Q: And the TGI [39]?
A: 37.3 µM

Q: What about the TGI [40] of the same compound?
A: 4.3 µM

Q: What about the TGI [41] of the same compound?
A: 11.4 µM

Q: What about the TGI [57] of the same compound?
A: > 100 µM

Q: What about the TGI [42] of the same compound?
A: 27.6 µM

Q: And the TGI [43]?
A: 3.76 µM

Q: And the TGI [44]?
A: > 100 µM

Q: What about the TGI [45] of the same compound?
A: 10.6 µM

Q: And the TGI [46]?
A: > 100 µM

Q: What about the TGI [47] of the same compound?
A: 16.7 µM

Q: What about the TGI [48] of the same compound?
A: > 100 µM

Q: And the TGI [51]?
A: 33.5 µM
